# Reference: patent US20010053796A1, “Delta-aminolevulinic acid for prevention and treatment of infection microorganisms and parasite” (priority 2000, published 2001)
# Tests used:
# [1] = system: Staphylococcus epidermis; assay: Treatment effect of infected fry by digestion in breeding water; type: in vivo, Bastardhalibut; details: 50 fish
# Procedure: (§1) To be used as experimental fish in this example, fry of Bastardhalibut and Sebastes schlegeli (mean body weight 2 g), 50 per each breeding tank, were preliminary-bred for 1 week and stabilized. […] The artificial infection methods were carried out by the digestion method. Pathogenic organisms were applied into fish tanks and digested in seawater, wherein the concentration of organisms has adjusted to 10^4 CFU/mL for an hour, and infected. Treatment conditions are as follows. After artificial infection. Infected fishes were moved to fish tanks and kept in the infection period for 3 days. On the fourth day of infection, 0.1, 1.0, 5 and 10 ppm δ-aminolevulinic acid were introduced to use as breeding water. Fish was bred in aerobic condition for 1˜24 hours without exchanging water and then, bred for 2 weeks after exchanging with clean seawater. Then, they were monitored to check for the mortality of fish according to infection. In the control groups, after each bacteria were identically introduced through the digestion method, mortality of Bastardhalibut and Sebastes schlegeli according to bacteria infection was identified while breeding with non-treated condition of δ-aminolevulinic acid. As a result of this experiment, δ-aminolevulinic acid-treated groups have shown high viability in both Bastardhalibut (Table 12˜Table 15) and Sebastes schlegeli (Table 16˜Table 19).
# [2] = system: Pseudomonas sp.; assay: as above; type: in vivo, Bastardhalibut; details: 50 fish
# Procedure: as §1
# [3] = system: Edwardsiella tarda; assay: as above; type: in vivo, Bastardhalibut; details: 50 fish
# Procedure: as §1
# [4] = system: Staphylococcus sp.; assay: as above; type: in vivo, Bastardhalibut; details: 50 fish
# Procedure: as §1
# [5] = system: Vibrio anguillarum; assay: as above; type: in vivo, Bastardhalibut; details: 50 fish
# Procedure: as §1
# [6] = system: Streptococcus sp.; assay: as above; type: in vivo, Bastardhalibut; details: 50 fish
# Procedure: as §1
# [7] = system: Iridovirus; assay: Treatment effect of virus-infected fish; type: in vivo, Pagrus major; details: for mortality during 10 days: 30 fish
# From the text: In this present example, as carried out in Experiment 2 of Example 3, from the result that inhibition effect of virus infection in vitro by δ-aminolevulinic acid treatment was ascertained, fish whose diseases were in progress by virus infection, decrease in the mortality of infected fish body was ascertained when treated with δ-aminolevulinic acid. Pagrus major diagnosed by the PCR method among a school of Iridovirus-infected fish from a fish farm nearby Yeosu, 30 of each were separated and contained in […]. They were divided to group A, B, C and control group. Temporary changes in mortality was ascertained in 10 ppm δ-aminolevulinic acid-treated A group, 1.0 ppm δ-aminolevulinic acid-treated B group, 0.1 ppm δ-aminolevulinic acid-treated C group and untreated control group by using δ-aminolevulinic acid produced by the inventor. Each δ-aminolevulinic acid-treated group was treated 3 times in […] and 10 days results were reported. In the case of actual fish farms, the mortality by virus infection reaches up to 70%. However, as shown in the result of infected fish of Table 28, in the present experimental condition, cumulative mortality of infected fish without treatment has reached up to 50% until 10th day of experimental period. In δ-aminolevulinic acid-treated groups, low mortalities of 17%, 17% and 27% was shown in the condition of A, B and C groups during 10 days, respectively.
# [8] = system: Sebastes schlegeli; assay: Breeding before Scutica artificial infection (mortality during cultivation); type: in vivo; details: 1˜3 weeks; for Mortality during Cultivation: dead of 20 fish
# Procedure: The water temperature was maintained at 20° C. (±2° C.) throughout the experiment.
# [9] = system: Streptococcus sp.; assay: Prevention effect for artificial infection (abdominal injection of bacteria); type: in vivo, Bastardhalibut; details: for Mortality during Cultivation: dead of 20 fish
# Procedure: The water temperature was maintained at 20° C. (±2° C. ) throughout the experiment.
# As the same method of above Experiment 1, fishes of both control group and experiment group were prepared and artificially infected by direct abdominal injection of Edwardsiella tarda 10^5 CFU per 1 fish. Each experimental fish was moved to fish tanks for monitoring and monitored for mortality according to infection for 2 weeks and viability after 2 weeks.
# Bastardhalibut and Sebastes schlegeli were infected by Streptococcus sp. by abdominal injection with the same method of fish breeding, δ-aminolevulinic acid treatment and artificial infection carried out in Experiment 1 and 2. Each experimental fish was moved to fish tanks for monitoring and monitored for mortality according to infection for 2 weeks. […] The treated group, with δ-aminolevulinic acid by tank administration method and oral administration method, has shown viability of higher than 65%.
# [10] = digestion 0.1 ppm from 4th day of infection, Bastard halibut fry
# [11] = digestion 1.0 ppm from 4th day of infection, Bastardhalibut fry
# [12] = digestion 5.0 ppm from 4th day of infection, in Bastard halibut
# [13] = digestion 10 ppm from 4th day of infection
# [14] = digestion 10 ppm from 4th day of infection, Bastardhalibut fry
# [15] = digestion 5.0 ppm from 4th day of infection
compound,measurement,setting,value
NCC(=O)CCC(=O)O [δ-aminolevulinic acid],Viability,[1]; [10],42%
same,Viability,[1]; [11],66%
same,Viability,[1]; [12],80%
same,Viability,[1]; [13],84%
same,Viability,[2]; [10],50%
same,Viability,[2]; [11],70%
same,Viability,[2]; [12],80%
same,Viability,[2]; [13],84%
same,Viability,[3]; [10],54%
same,Viability,[3]; [11],76%
same,Viability,[3]; [12],86%
same,Viability,[3]; [14],84%
same,Viability,[4]; [10],54%
same,Viability,[4]; [11],66%
same,Viability,[4]; [15],84%
same,Viability,[4]; [14],84%
same,Viability,[5]; [10],56%
same,Viability,[5]; [11],66%
same,Viability,[5]; [15],84%
same,Viability,[5]; [14],80%
same,Viability,[6]; [10],46%
same,Viability,[6]; [11],64%
same,Viability,[6]; [12],84%
same,Viability,[6]; [14],90%
same,Viable Fish number According to Elapsed days After Treatment,"[7]; 0.1 ppm, day 0",30
same,Viable Fish number According to Elapsed days After Treatment,"[7]; 0.1 ppm, day 1",25
same,Viable Fish number According to Elapsed days After Treatment,"[7]; 0.1 ppm, day 2",25
same,Viable Fish number According to Elapsed days After Treatment,"[7]; 0.1 ppm, day 3",23
same,Viable Fish number According to Elapsed days After Treatment,"[7]; 0.1 ppm, day 4",23
same,Viable Fish number According to Elapsed days After Treatment,"[7]; 0.1 ppm, day 5",23
same,Viable Fish number According to Elapsed days After Treatment,"[7]; 0.1 ppm, day 6",22
same,Viable Fish number According to Elapsed days After Treatment,"[7]; 0.1 ppm, day 7",22
same,Viable Fish number According to Elapsed days After Treatment,"[7]; 0.1 ppm, day 8",22
same,Viable Fish number According to Elapsed days After Treatment,"[7]; 0.1 ppm, day 9",22
same,Viable Fish number According to Elapsed days After Treatment,"[7]; 0.1 ppm, day 10",22
same,Viable Fish number According to Elapsed days After Treatment,"[7]; 1.0 ppm, day 0",30
same,Viable Fish number According to Elapsed days After Treatment,"[7]; 1.0 ppm, day 1",28
same,Viable Fish number According to Elapsed days After Treatment,"[7]; 1.0 ppm, day 2",26
same,Viable Fish number According to Elapsed days After Treatment,"[7]; 1.0 ppm, day 3",26
same,Viable Fish number According to Elapsed days After Treatment,"[7]; 1.0 ppm, day 4",26
same,Viable Fish number According to Elapsed days After Treatment,"[7]; 1.0 ppm, day 5",25
same,Viable Fish number According to Elapsed days After Treatment,"[7]; 1.0 ppm, day 6",25
same,Viable Fish number According to Elapsed days After Treatment,"[7]; 1.0 ppm, day 7",25
same,Viable Fish number According to Elapsed days After Treatment,"[7]; 1.0 ppm, day 8",25
same,Viable Fish number According to Elapsed days After Treatment,"[7]; 1.0 ppm, day 9",25
same,Viable Fish number According to Elapsed days After Treatment,"[7]; 1.0 ppm, day 10",25
same,Viable Fish number According to Elapsed days After Treatment,"[7]; 10 ppm, day 0",30
same,Viable Fish number According to Elapsed days After Treatment,"[7]; 10 ppm, day 1",28
same,Viable Fish number According to Elapsed days After Treatment,"[7]; 10 ppm, day 2",26
same,Viable Fish number According to Elapsed days After Treatment,"[7]; 10 ppm, day 3",26
same,Viable Fish number According to Elapsed days After Treatment,"[7]; 10 ppm, day 4",26
same,Viable Fish number According to Elapsed days After Treatment,"[7]; 10 ppm, day 5",26
same,Viable Fish number According to Elapsed days After Treatment,"[7]; 10 ppm, day 6",26
same,Viable Fish number According to Elapsed days After Treatment,"[7]; 10 ppm, day 7",25
same,Viable Fish number According to Elapsed days After Treatment,"[7]; 10 ppm, day 8",25
same,Viable Fish number According to Elapsed days After Treatment,"[7]; 10 ppm, day 9",25
same,Viable Fish number According to Elapsed days After Treatment,"[7]; 10 ppm, day 10",25
same,mortality during 10 days,"[7]; A group, 10 ppm",17%
same,mortality during 10 days,"[7]; B group, 1.0 ppm",17%
same,mortality during 10 days,"[7]; C group, 0.1 ppm",27%
same,Viability,[8]; oral (100 ppm per feed 1 kg),100%
same,Mortality during Cultivation,[8]; oral (100 ppm per feed 1 kg),0
same,Viability,[8]; to fish tanks (10 ppm),100%
same,Mortality during Cultivation,[8]; to fish tanks (10 ppm),0
same,Viability,"[9]; orally, 0.1 ppm in feed",65%
same,Mortality during Cultivation,"[9]; orally, 0.1 ppm in feed",7
same,Viability,"[9]; orally, 1.0 ppm in feed",65%
same,Mortality during Cultivation,"[9]; orally, 1.0 ppm in feed",7
same,Viability,"[9]; orally, 10 ppm in feed",80%
same,Mortality during Cultivation,"[9]; orally, 10 ppm in feed",4
same,Viability,"[9]; orally, 100 ppm in feed",85%
same,Mortality during Cultivation,"[9]; orally, 100 ppm in feed",3
same,Viability,"[9]; to fish tanks, 0.01 ppm",60%
same,Mortality during Cultivation,"[9]; to fish tanks, 0.01 ppm",8
same,Viability,"[9]; to fish tanks, 0.1 ppm",65%
same,Mortality during Cultivation,"[9]; to fish tanks, 0.1 ppm",7
same,Viability,"[9]; to fish tanks, 1.0 ppm",75%
same,Mortality during Cultivation,"[9]; to fish tanks, 1.0 ppm",5
same,Viability,"[9]; to fish tanks, 10 ppm",85%
same,Mortality during Cultivation,"[9]; to fish tanks, 10 ppm",3
